Tests used:
[1] = test system: ATR pathway; experiment: ATR pathway markers in mouse liver after cisplatin injection at CT08 or CT20 (immunoblotting); assay type: in vivo
Method: Before sacrificing C57BL/6J male mouse, the animal was placed under an environment where the daytime and nighttime were maintained for 12 hours each […], during 2 weeks. After exposing the mouse to CO2 and putting the animal to death, the liver of the mouse was cut into pieces having a size of less than 2 mm and washed with phosphate buffer saline (PBS), followed by freezing the same in liquid nitrogen. The frozen liver piece was pulverized using a ceramic mortar and pestle under liquid nitrogen to prepare a whole cell fusion. An extract of cytoplasm and nucleus protoplasm as well as the whole cell fusion were prepared. A chromatin-rich part could be obtained by treating 10-U DNase I (Promega) and 100-U micrococcal nuclease at 30° C. for 30 minutes and from the nucleus protoplasm through extraction using fillets. Each part was analyzed by SDS-PAGE and both of Ponceau S staining and immunoblotting. According to typical immunoblotting orders, amounts of proteins were determined using the above parts. For quantification of the immunoblotting, ImageQuant 5.2 software (Molecular Dynamics) was used. Antibodies used in the experiments were as follows: GAPDH, p-Chk1 5345, p53, p-p53 S15 (Cell Signaling Technology), ATR, RPA70 (Replication Protein A), Chk1, Actin (Santa Cruz Biotechnology), Clock, Cry1, Cry2, p-MCM2 5108, Tim (Timeless), Tipin (Bethyl Laboratory), histone H3 (Millipore), Per2 (BD Biosciences) and platinum GpG (Oncolyze). Tim and Cry1, Tim protein complexes were precipitated using protein A/G-coupled sepharose (Sigma) collected beforehand as well as an anti-Tim antibody. In order to detect Cry1 precipitated together with Tim, immunoblotting was implemented. In the present disclosure, CT refers to a time having passed from a time period when the bio-cyclic rhythm was induced. For instance, CT08 means 8 hours after the induction of the bio-cyclic rhythm, and CT20 means 20 hours after the induction of the bio-cyclic rhythm. […]

[2] = test system: WT MEFs cells; experiment: removal of Platinum-GpG adducts after cisplatin in forskolin-synchronized cells (immunoslot blotting); assay type: cell-based, mouse; conditions: cisplatin given 12 hours vs 24 hours after forskolin treatment
Method: For cell culture, 1 ml of 10% (vol/vol) fetal bovine serum (FBS, Hyclone Co.) was added to 10 ml of Dulbecco's modified Eagle's medium (DMEM), followed by adding 100 μl of 1% (vol/vol) penicillin-streptomycin thereto. Then, NIH3T3 cells, wild-type mouse embryo fibroblasts (WT MEFs), and mouse embryo fibroblasts free from cryptochrome 1 (Cry1) and cryptochrome 2(Cry2) (Cry^DKO MEFs), respectively, were cultured in the above prepared culture medium. For bio-cycle synchronization, fused cells were further cultured for additional three (3) days after adding […] forskolin to the above medium. After separating genomic DNA from MEFs cells using QIAamp DNA Mini kit (Qiagen), […] of genomic DNA was moved to a nitrocellulose membrane by a BioDot SF Microfiltration apparatus (BioRad). The genomic DNA was heated at 80° C. for 2 hours under vacuum to be bound to the nitrocellulose membrane. Using a mono-antibody specifically recognizing Platinum-GpG adducts (Oncolyze), an amount of DNA damaged by cisplatin was relatively measured. Then, it may be identified whether DNA bound to the nitrocellulose membrane is quantified on Gel-doc after staining the DNA with Sybr-gold as a DNA staining reagent.

[3] = i.p. injection; cited from earlier work
[4] = test system: cryptochrome 1 (Cry1); experiment: Cry1 expression over time after forskolin bio-cycle synchronization in WT MEFs (immunoblotting); assay type: cell-based, mouse
Method: (§1) For cell culture, 1 ml of 10% (vol/vol) fetal bovine serum (FBS, Hyclone Co.) was added to 10 ml of Dulbecco's modified Eagle's medium (DMEM), followed by adding 100 μl of 1% (vol/vol) penicillin-streptomycin thereto. Then, NIH3T3 cells, wild-type mouse embryo fibroblasts (WT MEFs), and mouse embryo fibroblasts free from cryptochrome 1 (Cry1) and cryptochrome 2(Cry2) (Cry^DKO MEFs), respectively, were cultured in the above prepared culture medium. For bio-cycle synchronization, fused cells were further cultured for additional three (3) days after adding […] forskolin to the above medium. An extract of cytoplasm and nucleus protoplasm as well as the whole cell fusion were prepared. A chromatin-rich part could be obtained by treating 10-U DNase I (Promega) and 100-U micrococcal nuclease at 30° C. for 30 minutes and from the nucleus protoplasm through extraction using fillets. Each part was analyzed by SDS-PAGE and both of Ponceau S staining and immunoblotting. According to typical immunoblotting orders, amounts of proteins were determined using the above parts. For quantification of the immunoblotting, ImageQuant 5.2 software (Molecular Dynamics) was used. […]

[5] = test system: ATR; experiment: phosphorylation of p53 and Chk1 (proxy marker of ATR) after UV radiation in forskolin-synchronized cells; assay type: cell-based, mouse; conditions: NIH3T3 cells
Method: as §1, with “above medium. For UV radiation, using a germicidal lamp (GE) mainly emitting UV-C beam, UV light was emitted to the fused cells by 5 J/m^2. Then, a fluorescence rate of the incident beam was measured using a UV-C sensor. An extract” for “above medium. An extract”

Structure (SMILES) | accumulation of replicated protein A (RPA70) in chromatin ([1]; liver chromatin, after cisplatin injection at CT20) | p-MCM2 signal, mouse at CT20 as compared to the mouse at CT08 ([1]; mouse liver, at 8 hours or later after the cisplatin injection) | extents of expression of p-Chk1 and p-p53 ([1]; mouse liver, cisplatin injected at CT08 and CT20) | removal rate of Platinum-GpG [2] | time until cisplatin reaches the liver [3] | time of maximum expression of cryptochrome 1 (Cry1) after forskolin treatment [4] | time of minimum expression of cryptochrome 1 (Cry1) after forskolin treatment [4] | extent of phosphorylation of p53 and Chk1, cell 12 hours after forskolin treatment as compared to cell 24 hours after [5]
N.N.[Cl][Pt][Cl] [cisplatin] | accumulation of replicated protein A was identified in chromatin | ≥ 2 times | insignificant | higher at 12 hours after forskolin treatment | about 2 hours |  |  | 
C=C[C@@]1(C)CC(=O)[C@]2(O)[C@@]3(C)[C@@H](O)CCC(C)(C)[C@@H]3[C@H](O)[C@H](OC(C)=O)[C@@]2(C)O1 [forskolin] |  |  |  |  |  | 12 h | 24 h | 2 to 3 times

— patent US9884086B2, “Administration method for anticancer drugs” (Dong-A University Research Foundation for Industry—Academy …, priority 2014, dated 2018)
